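96-well plates; 48 h exposure; 5 concentrations. Endpoints by linear interpolation between flanking doses. Not reached: highest tested concentration assigned. GI50: concentration for 50% inhibition of growth. TGI: total growth inhibition.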
Assays:
Test in all cases: growth of human tumour cells (NCI), 48 h
HOP-62 NSCLC = system: HOP-62 NSCLC
MCF7 breast = system: MCF7 breast
NCI-H522 lung = system: NCI-H522 lung
OVCAR-5 ovarian = system: OVCAR-5 ovarian
HCT-116 colon = system: HCT-116 colon
NCI-H226 lung = system: NCI-H226 lung
SR leukemia = system: SR leukemia
SN12C renal = system: SN12C renal
SF-295 CNS = system: SF-295 CNS
CCRF-CEM leukemia = system: CCRF-CEM leukemia
DU-145 prostate = system: DU-145 prostate
NCI-H23 lung = system: NCI-H23 lung
PC-3 prostate = system: PC-3 prostate
HT29 colon = system: HT29 colon
SF-539 CNS = system: SF-539 CNS
KM12 colon = system: KM12 colon
SK-MEL-28 melanoma = system: SK-MEL-28 melanoma
K-562 leukemia = system: K-562 leukemia
MDA-MB-468 breast = system: MDA-MB-468 breast
SK-MEL-5 melanoma = system: SK-MEL-5 melanoma
A549 NSCLC = system: A549 NSCLC
CAKI-1 renal = system: CAKI-1 renal
A498 renal = system: A498 renal
TK-10 renal = system: TK-10 renal
U251 CNS = system: U251 CNS
ACHN renal = system: ACHN renal
UACC-257 melanoma = system: UACC-257 melanoma
OVCAR-8 ovarian = system: OVCAR-8 ovarian
MDA-MB-231 breast = system: MDA-MB-231 breast
SNB-75 CNS = system: SNB-75 CNS
OVCAR-3 ovarian = system: OVCAR-3 ovarian
SNB-19 CNS = system: SNB-19 CNS
HCC-2998 colon = system: HCC-2998 colon
HCT-15 colon = system: HCT-15 colon
MOLT-4 leukemia = system: MOLT-4 leukemia
HL-60(TB) leukemia = system: HL-60(TB) leukemia
IGROV1 ovarian = system: IGROV1 ovarian
UACC-62 melanoma = system: UACC-62 melanoma
COLO 205 colon = system: COLO 205 colon
786-0 renal = system: 786-0 renal
LOX IMVI melanoma = system: LOX IMVI melanoma
RXF 393 renal = system: RXF 393 renal
RPMI-8226 leukemia = system: RPMI-8226 leukemia
BT-549 breast = system: BT-549 breast
SF-268 CNS = system: SF-268 CNS
NCI-H460 lung = system: NCI-H460 lung
SK-OV-3 ovarian = system: SK-OV-3 ovarian
UO-31 renal = system: UO-31 renal
EKVX NSCLC = system: EKVX NSCLC
SW-620 colon = system: SW-620 colon
OVCAR-4 ovarian = system: OVCAR-4 ovarian
SK-MEL-2 melanoma = system: SK-MEL-2 melanoma
M14 melanoma = system: M14 melanoma
HS 578T breast = system: HS 578T breast
T-47D breast = system: T-47D breast
MALME-3M melanoma = system: MALME-3M melanoma
HOP-92 NSCLC = system: HOP-92 NSCLC
MDA-MB-435 = system: MDA-MB-435

**Q.** For `COc1cc2c(cc1OC)CN(CCCCOc1cc(O)c3c(=O)cc(-c4ccccc4)oc3c1)CC2`, which GI50 (HOP-62 NSCLC) is on record?
**A.** 22.2 µM

**Q.** What about the TGI (HOP-62 NSCLC) of the same compound?
**A.** > 100 µM

**Q.** And the GI50 (MCF7 breast)?
**A.** 6.06 µM

**Q.** And the TGI (MCF7 breast)?
**A.** 35.4 µM

**Q.** And the GI50 (NCI-H522 lung)?
**A.** 12.5 µM

**Q.** And the TGI (NCI-H522 lung)?
**A.** 29.4 µM

**Q.** And the GI50 (OVCAR-5 ovarian)?
**A.** 40.7 µM

**Q.** What about the TGI (OVCAR-5 ovarian) of the same compound?
**A.** > 100 µM

**Q.** What about the GI50 (HCT-116 colon) of the same compound?
**A.** 3.42 µM

**Q.** What about the TGI (HCT-116 colon) of the same compound?
**A.** 13.4 µM

**Q.** What about the GI50 (NCI-H226 lung) of the same compound?
**A.** 10.2 µM

**Q.** What about the TGI (NCI-H226 lung) of the same compound?
**A.** > 100 µM

**Q.** And the GI50 (SR leukemia)?
**A.** 1.85 µM

**Q.** What about the TGI (SR leukemia) of the same compound?
**A.** 4.67 µM

**Q.** What about the GI50 (SN12C renal) of the same compound?
**A.** 6.25 µM

**Q.** And the TGI (SN12C renal)?
**A.** > 100 µM

**Q.** And the GI50 (SF-295 CNS)?
**A.** 10.7 µM

**Q.** And the TGI (SF-295 CNS)?
**A.** 25 µM

**Q.** And the GI50 (CCRF-CEM leukemia)?
**A.** 5.17 µM

**Q.** What about the TGI (CCRF-CEM leukemia) of the same compound?
**A.** > 100 µM

**Q.** And the GI50 (DU-145 prostate)?
**A.** 32.1 µM

**Q.** What about the TGI (DU-145 prostate) of the same compound?
**A.** > 100 µM

**Q.** And the GI50 (NCI-H23 lung)?
**A.** 24.5 µM

**Q.** And the TGI (NCI-H23 lung)?
**A.** > 100 µM

**Q.** And the GI50 (PC-3 prostate)?
**A.** 6.44 µM

**Q.** And the TGI (PC-3 prostate)?
**A.** > 100 µM

**Q.** And the GI50 (HT29 colon)?
**A.** 3.34 µM

**Q.** And the TGI (HT29 colon)?
**A.** 12.4 µM

**Q.** And the GI50 (SF-539 CNS)?
**A.** 10.4 µM

**Q.** What about the TGI (SF-539 CNS) of the same compound?
**A.** 23.8 µM

**Q.** What about the GI50 (KM12 colon) of the same compound?
**A.** 10.3 µM

**Q.** What about the TGI (KM12 colon) of the same compound?
**A.** 36.9 µM

**Q.** What about the GI50 (SK-MEL-28 melanoma) of the same compound?
**A.** 5.32 µM

**Q.** And the TGI (SK-MEL-28 melanoma)?
**A.** 19.6 µM

**Q.** What about the GI50 (K-562 leukemia) of the same compound?
**A.** 2.48 µM

**Q.** And the TGI (K-562 leukemia)?
**A.** 10.8 µM

**Q.** And the GI50 (MDA-MB-468 breast)?
**A.** 2.07 µM

**Q.** What about the TGI (MDA-MB-468 breast) of the same compound?
**A.** 14 µM

**Q.** What about the GI50 (SK-MEL-5 melanoma) of the same compound?
**A.** 11 µM

**Q.** What about the TGI (SK-MEL-5 melanoma) of the same compound?
**A.** 23.5 µM

**Q.** What about the GI50 (A549 NSCLC) of the same compound?
**A.** 16.1 µM

**Q.** And the TGI (A549 NSCLC)?
**A.** > 100 µM

**Q.** What about the GI50 (CAKI-1 renal) of the same compound?
**A.** 13.1 µM

**Q.** And the TGI (CAKI-1 renal)?
**A.** 97.5 µM

**Q.** What about the GI50 (A498 renal) of the same compound?
**A.** 25.8 µM

**Q.** And the TGI (A498 renal)?
**A.** 63.6 µM

**Q.** What about the GI50 (TK-10 renal) of the same compound?
**A.** 57.4 µM

**Q.** What about the TGI (TK-10 renal) of the same compound?
**A.** > 100 µM

**Q.** And the GI50 (U251 CNS)?
**A.** 11.9 µM

**Q.** And the TGI (U251 CNS)?
**A.** 56.6 µM

**Q.** And the GI50 (ACHN renal)?
**A.** 8.74 µM

**Q.** And the TGI (ACHN renal)?
**A.** > 100 µM

**Q.** What about the GI50 (UACC-257 melanoma) of the same compound?
**A.** 5.28 µM

**Q.** What about the TGI (UACC-257 melanoma) of the same compound?
**A.** 18.6 µM

**Q.** And the GI50 (OVCAR-8 ovarian)?
**A.** 18.9 µM

**Q.** What about the TGI (OVCAR-8 ovarian) of the same compound?
**A.** > 100 µM

**Q.** And the GI50 (MDA-MB-231 breast)?
**A.** 10.6 µM

**Q.** What about the TGI (MDA-MB-231 breast) of the same compound?
**A.** 44.8 µM

**Q.** And the GI50 (SNB-75 CNS)?
**A.** 4 µM

**Q.** What about the TGI (SNB-75 CNS) of the same compound?
**A.** 45.4 µM

**Q.** What about the GI50 (OVCAR-3 ovarian) of the same compound?
**A.** 13.1 µM

**Q.** What about the TGI (OVCAR-3 ovarian) of the same compound?
**A.** 50.3 µM

**Q.** And the GI50 (SNB-19 CNS)?
**A.** 28.5 µM

**Q.** What about the TGI (SNB-19 CNS) of the same compound?
**A.** > 100 µM

**Q.** What about the GI50 (HCC-2998 colon) of the same compound?
**A.** 7.91 µM

**Q.** What about the TGI (HCC-2998 colon) of the same compound?
**A.** 22.1 µM

**Q.** And the GI50 (HCT-15 colon)?
**A.** 6.7 µM

**Q.** And the TGI (HCT-15 colon)?
**A.** 31.8 µM

**Q.** And the GI50 (MOLT-4 leukemia)?
**A.** 3.09 µM

**Q.** And the TGI (MOLT-4 leukemia)?
**A.** 19.6 µM

**Q.** And the GI50 (HL-60(TB) leukemia)?
**A.** 2.32 µM

**Q.** And the TGI (HL-60(TB) leukemia)?
**A.** 13.8 µM

**Q.** What about the GI50 (IGROV1 ovarian) of the same compound?
**A.** 26.4 µM

**Q.** And the TGI (IGROV1 ovarian)?
**A.** > 100 µM

**Q.** And the GI50 (UACC-62 melanoma)?
**A.** 2.67 µM

**Q.** And the TGI (UACC-62 melanoma)?
**A.** 7.92 µM

**Q.** What about the GI50 (COLO 205 colon) of the same compound?
**A.** 3.27 µM

**Q.** And the TGI (COLO 205 colon)?
**A.** 12.6 µM

**Q.** What about the GI50 (786-0 renal) of the same compound?
**A.** 3.53 µM

**Q.** And the TGI (786-0 renal)?
**A.** 14.4 µM

**Q.** What about the GI50 (LOX IMVI melanoma) of the same compound?
**A.** 4.51 µM

**Q.** And the TGI (LOX IMVI melanoma)?
**A.** 15.3 µM

**Q.** And the GI50 (RXF 393 renal)?
**A.** 1.69 µM

**Q.** And the TGI (RXF 393 renal)?
**A.** 10.9 µM

**Q.** What about the GI50 (RPMI-8226 leukemia) of the same compound?
**A.** 4.29 µM

**Q.** What about the TGI (RPMI-8226 leukemia) of the same compound?
**A.** 24.3 µM

**Q.** And the GI50 (BT-549 breast)?
**A.** 8.53 µM

**Q.** What about the TGI (BT-549 breast) of the same compound?
**A.** 22.9 µM

**Q.** What about the GI50 (SF-268 CNS) of the same compound?
**A.** 10.6 µM

**Q.** And the TGI (SF-268 CNS)?
**A.** > 100 µM

**Q.** And the GI50 (NCI-H460 lung)?
**A.** 7.07 µM

**Q.** What about the TGI (NCI-H460 lung) of the same compound?
**A.** 41.5 µM

**Q.** And the GI50 (SK-OV-3 ovarian)?
**A.** 15.7 µM

**Q.** And the TGI (SK-OV-3 ovarian)?
**A.** 50.8 µM

**Q.** What about the GI50 (UO-31 renal) of the same compound?
**A.** 10.3 µM

**Q.** What about the TGI (UO-31 renal) of the same compound?
**A.** 26.4 µM

**Q.** And the GI50 (EKVX NSCLC)?
**A.** 71 µM

**Q.** What about the TGI (EKVX NSCLC) of the same compound?
**A.** > 100 µM

**Q.** What about the GI50 (SW-620 colon) of the same compound?
**A.** 11.3 µM

**Q.** What about the TGI (SW-620 colon) of the same compound?
**A.** 35.4 µM

**Q.** And the GI50 (OVCAR-4 ovarian)?
**A.** 4.01 µM

**Q.** What about the TGI (OVCAR-4 ovarian) of the same compound?
**A.** 91.5 µM

**Q.** And the GI50 (SK-MEL-2 melanoma)?
**A.** 14 µM

**Q.** And the TGI (SK-MEL-2 melanoma)?
**A.** 40.1 µM

**Q.** And the GI50 (M14 melanoma)?
**A.** 2.96 µM

**Q.** And the TGI (M14 melanoma)?
**A.** 11.3 µM

**Q.** And the GI50 (HS 578T breast)?
**A.** 11.6 µM

**Q.** And the TGI (HS 578T breast)?
**A.** 52 µM

**Q.** And the GI50 (T-47D breast)?
**A.** 9.01 µM

**Q.** What about the TGI (T-47D breast) of the same compound?
**A.** 65.9 µM

**Q.** And the GI50 (MALME-3M melanoma)?
**A.** 2.95 µM

**Q.** What about the TGI (MALME-3M melanoma) of the same compound?
**A.** 8.16 µM

**Q.** And the GI50 (HOP-92 NSCLC)?
**A.** 8.92 µM

**Q.** What about the TGI (HOP-92 NSCLC) of the same compound?
**A.** > 100 µM

**Q.** And the GI50 (MDA-MB-435)?
**A.** 13.2 µM

**Q.** And the TGI (MDA-MB-435)?
**A.** 41.9 µM
